Results from the supplement of paper PMC10307832.

Columns and labels:
Assay in all cases: relative viability (nuclei count vs DMSO), 5 days (fraction); higher = more cells survive
[1] = compound: C[C@H]([C@@H](C(=O)N)NC(=O)[C@@H]1CSSC[C@@H](C(=O)N[C@H](C(=O)N[C@@H](C(=O)N[C@H](C(=O)N1)CCCCN)CC2=CNC3=CC=CC=C32)CC4=CC=C(C=C4)O)NC(=O)[C@@H](CC5=CC=CC=C5)N)O [CAP-232] + CCNC(=O)c1noc(-c2cc(C(C)C)c(O)cc2O)c1-c1ccc(CN2CCOCC2)cc1 [Luminespib] (partner 0.01 µM)
Outline: (§1)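 Lung cancer cell lines in 1536-well plates got either a single drug or a fixed anchor-drug dose together with five library-drug doses (not always all listed) in √10 steps, by pin tool, on the day after seeding. Nuclei were counted after 5 days, and relative viability is the treated-to-vehicle ratio of nuclei counts. Values are medians of duplicate plates.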

[2] = compound: C[C@H]([C@@H](C(=O)N)NC(=O)[C@@H]1CSSC[C@@H](C(=O)N[C@H](C(=O)N[C@@H](C(=O)N[C@H](C(=O)N1)CCCCN)CC2=CNC3=CC=CC=C32)CC4=CC=C(C=C4)O)NC(=O)[C@@H](CC5=CC=CC=C5)N)O [CAP-232] + O=C(CCCCCCC(=O)Nc1ccccc1)NO [Vorinostat] (partner 1 µM)
Outline: as §1

[3] = compound: C[C@H]([C@@H](C(=O)N)NC(=O)[C@@H]1CSSC[C@@H](C(=O)N[C@H](C(=O)N[C@@H](C(=O)N[C@H](C(=O)N1)CCCCN)CC2=CNC3=CC=CC=C32)CC4=CC=C(C=C4)O)NC(=O)[C@@H](CC5=CC=CC=C5)N)O [CAP-232] + Cc1cc(Nc2cc(N3CCN(C)CC3)nc(Sc3ccc(NC(=O)C4CC4)cc3)n2)n[nH]1 [Tozasertib] (partner 0.1 µM)
Outline: as §1

[4] = compound: C[C@H]([C@@H](C(=O)N)NC(=O)[C@@H]1CSSC[C@@H](C(=O)N[C@H](C(=O)N[C@@H](C(=O)N[C@H](C(=O)N1)CCCCN)CC2=CNC3=CC=CC=C32)CC4=CC=C(C=C4)O)NC(=O)[C@@H](CC5=CC=CC=C5)N)O [CAP-232] + COc1cc2c(Oc3ccc(NC(=O)C4(C(=O)Nc5ccc(F)cc5)CC4)cc3F)ccnc2cc1OCCCN1CCOCC1 [Foretinib] (partner 0.25 µM)
Outline: as §1

[5] = compound: C[C@H]([C@@H](C(=O)N)NC(=O)[C@@H]1CSSC[C@@H](C(=O)N[C@H](C(=O)N[C@@H](C(=O)N[C@H](C(=O)N1)CCCCN)CC2=CNC3=CC=CC=C32)CC4=CC=C(C=C4)O)NC(=O)[C@@H](CC5=CC=CC=C5)N)O [CAP-232] + CC(C)C[C@H](NC(=O)[C@H](Cc1ccccc1)NC(=O)c1cnccn1)B(O)O [Bortezomib] (partner 0.002 µM)
Outline: as §1

Cell Line	relative viability ([1]; first compound 0.4 µM)	relative viability ([1]; first compound 1.265 µM)	relative viability ([1]; first compound 4 µM)	relative viability ([1]; first compound 12.65 µM)	relative viability ([2]; first compound 0.4 µM)	relative viability ([2]; first compound 1.265 µM)	relative viability ([2]; first compound 4 µM)	relative viability ([2]; first compound 12.65 µM)	relative viability ([3]; first compound 0.4 µM)	relative viability ([3]; first compound 1.265 µM)	relative viability ([3]; first compound 4 µM)	relative viability ([3]; first compound 12.65 µM)	relative viability ([4]; first compound 0.4 µM)	relative viability ([4]; first compound 1.265 µM)	relative viability ([4]; first compound 4 µM)	relative viability ([4]; first compound 12.65 µM)	relative viability ([5]; first compound 0.4 µM)	relative viability ([5]; first compound 1.265 µM)	relative viability ([5]; first compound 4 µM)	relative viability ([5]; first compound 12.65 µM)
NCI-H2023	0.917	0.725	0.69	0.232	0.599	0.426	0.645	0.251	0.348	0.332	0.379	0.139	0.899	0.946	0.766	0.294	1.02	1.03	1.07	0.237
NCI-H2085	0.472	0.459	0.425	0.462	0.852	0.819	0.779	0.832	0.94	0.816	0.827	0.844	0.933	0.87	1.1	0.998	1.2	0.974	1	0.791
NCI-H2087	0.187	0.157	0.146	0.143	0.985	0.728	0.886	0.439	0.193	0.212	0.221	0.311	1.17	1.2	1.1	0.665	1.01	0.746	1.14	0.462
NCI-H2126	0.909	0.955	0.992	0.659	0.827	0.795	0.755	0.857	0.801	0.799	0.885	0.822	1.34	1.33	1.63	1.11	1.22	1.08	1.19	1.13
NCI-H2228	0.142	0.128	0.189	0.177	0.657	0.389	0.597	0.709	0.257	0.28	0.195	0.263	0.826	0.938	1.09	0.485	0.9	0.977	1.21	0.74
NCI-H2347	0.274	0.493	0.443	0.471	0.63	0.613	0.585	0.487	0.564	0.545	0.517	0.521	0.804	0.524	1.11	1.05	1.14	1.19	1.2	0.846
NCI-H2405	0.61	0.709	0.641	0.491	1.22	1.09	1.01	0.79	0.728	0.751	0.761	0.683	1.04	1.11	1.05	0.79	1	0.867	1.07	0.9
NCI-H3122	0.0705	0.067	0.0822	0.0819	1.07	1.05	0.883	0.945	0.344	0.36	0.292	0.252	0.91	0.97	0.795	1.03	1.01	1.05	0.896	1
PC-3 [JPC-3]	0.663	0.661	0.732	0.538	1.3	0.741	0.864	0.741	1.05	0.949	0.924	0.91	1.1	1.02	1.05	0.98	0.939	0.855	0.734	0.788
PC-14	0.26	0.178	0.183	0.125	0.793	0.701	0.725	0.522	0.644	0.575	0.542	0.565	1.06	0.939	1.06	0.86	0.931	0.817	1.07	0.821
RERF-LC-KJ	1.27	1.39	1	0.918	0.817	0.763	0.706	0.485	0.562	0.444	0.433	0.351	0.87	0.993	0.951	0.884	1.16	1.15	1.44	0.987
SK-LU-1	0.198	0.211	0.183	0.207	0.744	0.792	0.761	0.591	0.309	0.314	0.289	0.203	0.759	0.937	0.913	0.652	1.53	1.04	1.2	1.3
SW 1573	0.166	0.323	0.214	0.161	0.7	0.867	0.926	0.309	0.185	0.207	0.189	0.126	0.873	0.836	0.903	1.03	0.951	1.03	0.927	0.974
UMC-11	0.964	1.07	1.07	0.994	0.357	0.413	0.344	0.272	0.202	0.191	0.214	0.17	1.09	1.1	1.12	0.977	1.11	0.719	1.11	1.1
